Results on five compounds are retold here after patent US20010047099A1, “4-aminopicolinates and their use as herbicides” (priority 2000, published 2001).

Holding throughout (type): in vivo
For experiment [1], the system named is blackgrass (Alopecurus myosuroides). The experiment is described as follows: Preemergence herbicidal activity. The settings on record: pre-emergence, 504 h. A digest of the protocol:
(§1)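 Percent injury or lack of germination was judged by eye against untreated pots at 3 weeks, where 100 means complete kill. Before emergence, seeded 70:30 loam-sand soil received a surface spray of compound in water with 0.1% Tween 155 (acetone/DMSO carrier); greenhouse 15 h photoperiod, about 22-29° C.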

For experiment [2], the system named is wild oats (Avena fatua). Description: Preemergence herbicidal activity. The settings on record: pre-emergence, 504 h. The essentials: as §1
For experiment [3], the system named is crabgrass (Digitaria sanguinalis). Description: Preemergence herbicidal activity. As to conditions: pre-emergence, 504 h. A digest of the protocol: as §1
Experiment [4] deals with wild poinsettia (Euphorbia heterophylla). Description: Preemergence herbicidal activity. The settings on record: pre-emergence, 504 h. A digest of the protocol:
as §1

Experiment [5] concerns barnyardgrass (Echinochloa crus-galli). Description: Preemergence herbicidal activity. As to conditions: pre-emergence, 504 h. A digest of the protocol:
as §1

Experiment [6] has as its system lambsquarters (Chenopodium album). The experiment is described as follows: Preemergence herbicidal activity. The settings on record: pre-emergence, 504 h. The essentials: as §1
For experiment [7], the system named is giant foxtail (Setaria faberi). Description: Preemergence herbicidal activity. As to conditions: pre-emergence, 504 h. A digest of the protocol: as §1
Experiment [8] relates to Rox orange sorghum (sorghum bicolor). The experiment is described as follows: Preemergence herbicidal activity. The settings on record: pre-emergence, 504 h. The essentials:
as §1

Experiment [9] has as its system cocklebur (Xanthium strumarium). Description: Preemergence herbicidal activity. As to conditions: pre-emergence, 504 h. The essentials:
as §1

For experiment [10], the system named is White Clover (Trifolium repens). The experiment is described as follows: Range & Pasture Crop Testing (postemergence track sprayer). The settings on record: Table 10. The essentials:
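Postemergence track-sprayer application at 187 L/ha, compounds formulated in 97:3 acetone:DMSO with 0.25% X-77, five rates (X serially diluted to 1/16×). Visual percent control (0–100 scale, burn down) rated 3 weeks after treatment; GR50/GR80 derived by probit analysis.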

Setting [11] is: Table 7, rate 35 g/Ha, after 3 weeks, read-out: PREEMERGENCE HERBICIDAL ACTIVITY % CONTROL AVEFA.
Setting [12] is: Table 7, rate 35 g/Ha, after 3 weeks, read-out: PREEMERGENCE HERBICIDAL ACTIVITY % CONTROL DIGSA.
The mark [13] stands for this setting: Table 7, rate 35 g/Ha, after 3 weeks, read-out: PREEMERGENCE HERBICIDAL ACTIVITY % CONTROL EPHHL.
[14] abbreviates: Table 7, rate 35 g/Ha, after 3 weeks, read-out: PREEMERGENCE HERBICIDAL ACTIVITY % CONTROL ECHCG.
The mark [15] stands for this setting: Table 7, rate 35 g/Ha, after 3 weeks, read-out: PREEMERGENCE HERBICIDAL ACTIVITY % CONTROL CHEAL.
The mark [16] stands for this setting: Table 7, rate 35 g/Ha, after 3 weeks, read-out: PREEMERGENCE HERBICIDAL ACTIVITY % CONTROL SETFA.
The mark [17] stands for this setting: Table 7, rate 35 g/Ha, after 3 weeks, read-out: PREEMERGENCE HERBICIDAL ACTIVITY % CONTROL SORBI.
The mark [18] stands for this setting: Table 7, rate 35 g/Ha, after 3 weeks, read-out: PREEMERGENCE HERBICIDAL ACTIVITY % CONTROL XANST.
The mark [19] stands for this setting: Table 7, rate 35 g/Ha, after 3 weeks, read-out: PREEMERGENCE HERBICIDAL ACTIVITY % CONTROL ALOMY.

Read-outs that look alike come from different tables or passages of the source.

Regarding `Nc1cc(Cl)nc(C(=O)O)c1Cl` [Compound 1, 4-Amino-3,6-dichloropyridine-2-carboxylic acid], the inhibition at 35 g/ha was determined as 36% in experiment [1] (read-out: PR[…] % CONTROL ALOMY, Table 7, rate 35 g/Ha, after 3 weeks); 37% in [2] (read-out: PR[…] % CONTROL AVEFA, Table 7, rate 35 g/Ha, after 3 weeks); 20% in experiment [3] (read-out: PR[…] % CONTROL DIGSA, Table 7, rate 35 g/Ha, after 3 weeks); 62% in [4] (read-out: PR[…] % CONTROL EPHHL, Table 7, rate 35 g/Ha, after 3 weeks); 17% in [5] (read-out: PR[…] % CONTROL ECHCG, Table 7, rate 35 g/Ha, after 3 weeks); 99% in [6] (read-out: PR[…] % CONTROL CHEAL, Table 7, rate 35 g/Ha, after 3 weeks). The inhibition at 35 g/ha in experiment [7] (read-out: PR[…] % CONTROL SETFA, Table 7, rate 35 g/Ha, after 3 weeks) was 40%; in experiment [8] (read-out: PR[…] % CONTROL SORBI, Table 7, rate 35 g/Ha, after 3 weeks), 60%; in experiment [9] (read-out: PR[…] % CONTROL XANST, Table 7, rate 35 g/Ha, after 3 weeks), 99%.

Consider `COC(=O)c1nc(Cl)cc(N)c1Cl` [Compound 3, methyl 4-amino-3,6-dichloropyridine-2-carboxylate], for which the “GR20 TRFRE” value in [10] is less than 17.5 g/ha. Moreover, the inhibition at 35 g/ha in experiment [2] (setting [11]) came to 10%; in [3] (setting [12]), 40%; in experiment [4] (setting [13]), 20%; in experiment [5] (setting [14]), 20%; in experiment [6] (setting [15]), 100%; in experiment [7] (setting [16]), 40%. The figures for the inhibition at 35 g/ha in experiment [8] (setting [17]) and in [9] (setting [18]) were 30% and 90%, respectively.

With `CCOC(=O)c1nc(Cl)cc(N)c1Cl` [Compound 4, ethyl 4-amino-3,6-dichloropyridine-2-carboxylate], the “GR20 TRFRE” value in experiment [10] was less than 17.5 g/ha.

On to `Nc1cc(Br)nc(C(=O)O)c1Cl` [Compound 14, 4-Amino-6-bromo-3-chloropyridine-2-carboxylic acid], for which the inhibition at 35 g/ha in [1] (setting [19]) worked out at 60%; in [2] (setting [11]), 40%; in [3] (setting [12]) it was 80%; in experiment [4] (setting [13]) it was 70%; in experiment [5] (setting [14]), 40%; in experiment [6] (setting [15]), 100%. The inhibition at 35 g/ha came to 98% in experiment [7] (setting [16]), 50% in experiment [8] (setting [17]) and 100% in [9] (setting [18]).

As for `COc1c(C(=O)O)nc(Br)c(Cl)c1N` [Compound 42, 4-Amino-6-bromo-5-chloro-3-methoxypyridine-2-carboxylic acid], the inhibition at 35 g/ha in [1] (setting [19]) is 30%; in experiment [2] (setting [11]), 30%; in experiment [3] (setting [12]) it was 30%; in [4] (setting [13]) it was 40%; in experiment [5] (setting [14]), 30%; in experiment [6] (setting [15]), 90%. Further, the inhibition at 35 g/ha in experiment [7] (setting [16]) was determined as 30%; in [8] (setting [17]), 20%; in experiment [9] (setting [18]), 98%.
